Data published in patent US20220323406A1, “METHODS AND COMPOSITIONS FOR DIFFERENTIATING STEM CELLS” (Massachusetts Institute of Technology, priority 2019, published 2022).

Experiments:
[1] = tested on: ENR+CD organoids (ISC to Paneth cell differentiation); test: Primary screen: basal (non-stimulated) lysozyme secretion LYZ.NS, 2.5-D 384-well ENR+CD organoid differentiation; type: cell-based, mouse; details: primary screen; for Z.LYZ.NS: standard z score
Text: (§1) High-throughput screening.

[2] = tested on: ENR+CD organoids (ISC to Paneth cell differentiation); test: Primary screen: CCh-stimulated lysozyme secretion LYZ.S, 2.5-D 384-well ENR+CD organoid differentiation; type: cell-based, mouse; details: primary screen
Text: as §1

ENR+CD organoids = test: Primary screen: ATP (CellTiter-Glo 3D, CTG) cell number/viability, 2.5-D 384-well ENR+CD organoids; details: primary screen; for Z.CTG: standard z score;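 on all read-outs here: compounds given at plating and again on day 3 over a 6-day differentiation from ENR+CV stem-cell-enriched precursors, ATP measured on day 6, plate median as control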
[3] = 1st dose row of the treatment (0.08 uM by row order; dose not reprinted)
[4] = 2nd dose row of the treatment (0.40 uM by row order; dose not reprinted)
[5] = 3rd dose row of the treatment (2.00 uM by row order; dose not reprinted)
[6] = 4th dose row of the treatment (10.00 uM by row order; dose not reprinted)
[7] = dose 0.08 uM, FC vs plate median
[8] = dose 0.40 uM, FC vs plate median
[9] = dose 2.00 uM, FC vs plate median
[10] = dose 10.00 uM, FC vs plate median

**Q.** What does the source list for O=C1[C@H](Cc2ccc(O)cc2)N2C(=O)CCN(C(=O)NCc3ccccc3)[C@H]2CN1Cc1cccc2ccccc12 [ICG-001]?
**A.** Dose.FC.LYZ.NS (log2 fold change) ([1]; dose 0.08 uM): 0.037; Z.LYZ.NS (standard z score) ([1]; dose 0.08 uM): 0.324; Dose.FC.LYZ.NS (log2 fold change) ([1]; dose 0.40 uM): 0.037; Z.LYZ.NS (standard z score) ([1]; dose 0.40 uM): 0.321; Dose.FC.LYZ.NS (log2 fold change) ([1]; dose 2.00 uM): 0.045; Z.LYZ.NS (standard z score) ([1]; dose 2.00 uM): 0.396; Dose.FC.LYZ.NS (log2 fold change) ([1]; dose 10.00 uM): −0.125; Z.LYZ.NS (standard z score) ([1]; dose 10.00 uM): −1.093; Dose.FC.LYZ.S (log2 fold change) ([2]; dose 0.08 uM): 0.163; Dose.FC.LYZ.S (log2 fold change) ([2]; dose 0.40 uM): 0.204; Dose.FC.LYZ.S (log2 fold change) ([2]; dose 2.00 uM): 0.017; Dose.FC.LYZ.S (log2 fold change) ([2]; dose 10.00 uM): −0.124; Dose.FC.CTG (log2 fold change) (ENR+CD organoids; dose 0.08 uM): 0.104; Z.CTG (standard z score) (ENR+CD organoids; dose 0.08 uM): 0.249; Dose.FC.CTG (log2 fold change) (ENR+CD organoids; dose 0.40 uM): 0.104; Z.CTG (standard z score) (ENR+CD organoids; dose 0.40 uM): 0.248; Dose.FC.CTG (log2 fold change) (ENR+CD organoids; dose 2.00 uM): 0.143; Z.CTG (standard z score) (ENR+CD organoids; dose 2.00 uM): 0.343; Dose.FC.CTG (log2 fold change) (ENR+CD organoids; dose 10.00 uM): −0.416; Z.CTG (standard z score) (ENR+CD organoids; dose 10.00 uM): −0.993

**Q.** With COc1cc2c(cc1O)CC[C@@H]1[C@@H]2CC[C@]2(C)[C@@H](O)CC[C@@H]12 [2-Methoxyestradiol (2-MeOE2)] as the compound, how does the “SSMD.LYZ.NS_Rep (strictly standardized mean difference)” value [1, 3] read?
**A.** 0.077

**Q.** And the “SSMD.LYZ.NS_Rep (strictly standardized mean difference)” value [1, 4]?
**A.** 0.227

**Q.** What about the “SSMD.LYZ.NS_Rep (strictly standardized mean difference)” value [1, 5] of the same compound?
**A.** 0.049

**Q.** And the “SSMD.LYZ.NS_Rep (strictly standardized mean difference)” value [1, 6]?
**A.** −0.826

**Q.** What about the Dose.FC.LYZ.NS ([1]; dose 0.08 uM) of the same compound?
**A.** 0.021 log2 fold change

**Q.** What about the “Z.LYZ.NS (standard z score)” value ([1]; dose 0.08 uM) of the same compound?
**A.** 0.186

**Q.** What about the Dose.FC.LYZ.NS ([1]; dose 0.40 uM) of the same compound?
**A.** 0.065 log2 fold change

**Q.** What about the “Z.LYZ.NS (standard z score)” value ([1]; dose 0.40 uM) of the same compound?
**A.** 0.566

**Q.** And the Dose.FC.LYZ.NS ([1]; dose 2.00 uM)?
**A.** 0.005 log2 fold change

**Q.** And the “Z.LYZ.NS (standard z score)” value ([1]; dose 2.00 uM)?
**A.** 0.041

**Q.** And the Dose.FC.LYZ.NS ([1]; dose 10.00 uM)?
**A.** −0.139 log2 fold change

**Q.** What about the “Z.LYZ.NS (standard z score)” value ([1]; dose 10.00 uM) of the same compound?
**A.** −1.209

**Q.** And the “SSMD.LYZ.S_Rep (strictly standardized mean difference)” value [2, 3]?
**A.** 1.015

**Q.** What about the “Z.LYZ.S (standard z score)” value [2, 3] of the same compound?
**A.** 1.224

**Q.** And the “SSMD.LYZ.S_Rep (strictly standardized mean difference)” value [2, 4]?
**A.** 0.831

**Q.** What about the “Z.LYZ.S (standard z score)” value [2, 4] of the same compound?
**A.** 1.747

**Q.** And the “SSMD.LYZ.S_Rep (strictly standardized mean difference)” value [2, 5]?
**A.** 0.144

**Q.** And the “Z.LYZ.S (standard z score)” value [2, 5]?
**A.** 0.190

**Q.** What about the “SSMD.LYZ.S_Rep (strictly standardized mean difference)” value [2, 6] of the same compound?
**A.** −1.135

**Q.** And the “Z.LYZ.S (standard z score)” value [2, 6]?
**A.** −1.795

**Q.** What about the Dose.FC.LYZ.S ([2]; dose 0.08 uM) of the same compound?
**A.** 0.189 log2 fold change

**Q.** And the Dose.FC.LYZ.S ([2]; dose 0.40 uM)?
**A.** 0.270 log2 fold change

**Q.** And the Dose.FC.LYZ.S ([2]; dose 2.00 uM)?
**A.** 0.029 log2 fold change

**Q.** And the Dose.FC.LYZ.S ([2]; dose 10.00 uM)?
**A.** −0.278 log2 fold change

**Q.** And the “SSMD.CTG.Rep (strictly standardized mean difference)” value (ENR+CD organoids; [3])?
**A.** 0.407

**Q.** What about the “SSMD.CTG.Rep (strictly standardized mean difference)” value (ENR+CD organoids; [4]) of the same compound?
**A.** 0.930

**Q.** What about the “SSMD.CTG.Rep (strictly standardized mean difference)” value (ENR+CD organoids; [5]) of the same compound?
**A.** 0.461

**Q.** What about the “SSMD.CTG.Rep (strictly standardized mean difference)” value (ENR+CD organoids; [6]) of the same compound?
**A.** −0.878

**Q.** What about the Dose.FC.CTG (ENR+CD organoids; dose 0.08 uM) of the same compound?
**A.** 0.299 log2 fold change

**Q.** What about the “Z.CTG (standard z score)” value (ENR+CD organoids; dose 0.08 uM) of the same compound?
**A.** 0.714

**Q.** What about the Dose.FC.CTG (ENR+CD organoids; dose 0.40 uM) of the same compound?
**A.** 0.401 log2 fold change

**Q.** What about the “Z.CTG (standard z score)” value (ENR+CD organoids; dose 0.40 uM) of the same compound?
**A.** 0.957

**Q.** And the Dose.FC.CTG (ENR+CD organoids; dose 2.00 uM)?
**A.** 0.227 log2 fold change

**Q.** And the “Z.CTG (standard z score)” value (ENR+CD organoids; dose 2.00 uM)?
**A.** 0.543

**Q.** What about the Dose.FC.CTG (ENR+CD organoids; dose 10.00 uM) of the same compound?
**A.** −0.672 log2 fold change

**Q.** What about the “Z.CTG (standard z score)” value (ENR+CD organoids; dose 10.00 uM) of the same compound?
**A.** −1.606

**Q.** What does the source list for Nc1nc(N)c2nc(-c3ccccc3)c(N)nc2n1 [Triamterene]?
**A.** Dose.FC.LYZ.NS ([1]; dose 0.08 uM): 0.103 log2 fold change; Z.LYZ.NS (standard z score) ([1]; dose 0.08 uM): 0.894; Dose.FC.LYZ.NS ([1]; dose 0.40 uM): 0.030 log2 fold change; Z.LYZ.NS (standard z score) ([1]; dose 0.40 uM): 0.266; Dose.FC.LYZ.NS ([1]; dose 2.00 uM): −0.056 log2 fold change; Z.LYZ.NS (standard z score) ([1]; dose 2.00 uM): −0.490; Dose.FC.LYZ.NS ([1]; dose 10.00 uM): −0.187 log2 fold change; Z.LYZ.NS (standard z score) ([1]; dose 10.00 uM): −1.630; Dose.FC.LYZ.S ([2]; dose 0.08 uM): 0.048 log2 fold change; Dose.FC.LYZ.S ([2]; dose 0.40 uM): 0.051 log2 fold change; Dose.FC.LYZ.S ([2]; dose 2.00 uM): −0.065 log2 fold change; Dose.FC.LYZ.S ([2]; dose 10.00 uM): −0.290 log2 fold change; Dose.FC.CTG (ENR+CD organoids; dose 0.08 uM): −0.029 log2 fold change; Dose.FC.CTG (ENR+CD organoids; dose 0.40 uM): −0.165 log2 fold change; Dose.FC.CTG (ENR+CD organoids; dose 2.00 uM): −0.101 log2 fold change; Dose.FC.CTG (ENR+CD organoids; dose 10.00 uM): −0.462 log2 fold change

**Q.** With c1cc(-c2cnn3cc(-c4ccc(N5CCNCC5)cc4)cnc23)c2cccnc2c1 [LDN-212854] as the compound, how does the “Dose.FC.LYZ.NS (log2 fold change)” value ([1]; dose 0.08 uM) read?
**A.** 0.095

**Q.** What about the “Z.LYZ.NS (standard z score)” value ([1]; dose 0.08 uM) of the same compound?
**A.** 0.823

**Q.** What about the “Dose.FC.LYZ.NS (log2 fold change)” value ([1]; dose 0.40 uM) of the same compound?
**A.** 0.051

**Q.** What about the “Z.LYZ.NS (standard z score)” value ([1]; dose 0.40 uM) of the same compound?
**A.** 0.446

**Q.** What about the “Dose.FC.LYZ.NS (log2 fold change)” value ([1]; dose 2.00 uM) of the same compound?
**A.** −0.217

**Q.** What about the “Z.LYZ.NS (standard z score)” value ([1]; dose 2.00 uM) of the same compound?
**A.** −1.885

**Q.** What about the “Dose.FC.LYZ.NS (log2 fold change)” value ([1]; dose 10.00 uM) of the same compound?
**A.** −0.273

**Q.** And the “Z.LYZ.NS (standard z score)” value ([1]; dose 10.00 uM)?
**A.** −2.375

**Q.** What about the “Dose.FC.LYZ.S (log2 fold change)” value ([2]; dose 0.08 uM) of the same compound?
**A.** 0.162

**Q.** And the “Dose.FC.LYZ.S (log2 fold change)” value ([2]; dose 0.40 uM)?
**A.** 0.026

**Q.** What about the “Dose.FC.LYZ.S (log2 fold change)” value ([2]; dose 2.00 uM) of the same compound?
**A.** −0.292

**Q.** What about the “Dose.FC.LYZ.S (log2 fold change)” value ([2]; dose 10.00 uM) of the same compound?
**A.** −0.399

**Q.** And the “Dose.FC.CTG (log2 fold change)” value (ENR+CD organoids; dose 0.08 uM)?
**A.** 0.238

**Q.** And the “Z.CTG (standard z score)” value (ENR+CD organoids; dose 0.08 uM)?
**A.** 0.568

**Q.** What about the “Dose.FC.CTG (log2 fold change)” value (ENR+CD organoids; dose 0.40 uM) of the same compound?
**A.** 0.129

**Q.** What about the “Z.CTG (standard z score)” value (ENR+CD organoids; dose 0.40 uM) of the same compound?
**A.** 0.309

**Q.** And the “Dose.FC.CTG (log2 fold change)” value (ENR+CD organoids; dose 2.00 uM)?
**A.** −0.475

**Q.** What about the “Z.CTG (standard z score)” value (ENR+CD organoids; dose 2.00 uM) of the same compound?
**A.** −1.134

**Q.** What about the “Dose.FC.CTG (log2 fold change)” value (ENR+CD organoids; dose 10.00 uM) of the same compound?
**A.** −1.263

**Q.** And the “Z.CTG (standard z score)” value (ENR+CD organoids; dose 10.00 uM)?
**A.** −3.018

**Q.** Which results are given for CC(=O)c1cc([N+](=O)[O-])c(Sc2ccc(F)cc2F)s1 [P22077]?
**A.** Z.LYZ.NS ([1]; dose 0.08 uM): 0.338; Z.LYZ.NS ([1]; dose 0.40 uM): −0.041; Z.LYZ.NS ([1]; dose 2.00 uM): 0.248; Z.LYZ.NS ([1]; dose 10.00 uM): −0.487; Dose.FC.LYZ.NS [1, 7]: 0.039 log2 fold change; Dose.FC.LYZ.NS [1, 8]: −0.005 log2 fold change; Dose.FC.LYZ.NS [1, 9]: 0.028 log2 fold change; Dose.FC.LYZ.NS [1, 10]: −0.056 log2 fold change; Dose.FC.LYZ.S [2, 7]: −0.182 log2 fold change; Dose.FC.LYZ.S [2, 8]: 0.065 log2 fold change; Dose.FC.LYZ.S [2, 9]: −0.007 log2 fold change; Dose.FC.LYZ.S [2, 10]: −0.063 log2 fold change; Z.CTG (ENR+CD organoids; dose 0.08 uM): −0.516; Z.CTG (ENR+CD organoids; dose 0.40 uM): 0.117; Z.CTG (ENR+CD organoids; dose 2.00 uM): −0.320; Z.CTG (ENR+CD organoids; dose 10.00 uM): −0.311; Dose.FC.CTG (ENR+CD organoids; [7]): −0.216 log2 fold change; Dose.FC.CTG (ENR+CD organoids; [8]): 0.049 log2 fold change; Dose.FC.CTG (ENR+CD organoids; [9]): −0.134 log2 fold change; Dose.FC.CTG (ENR+CD organoids; [10]): −0.130 log2 fold change
